{
  "source": "paper PMC7905424",
  "about": "(Biochemistry. Biokhimiia, 2021)",
  "origin": "cited, not measured here",
  "key": {"[1]": {"system": "pro-inflammatory cytokine IL-6", "details": "COVID-19 patients"}},
  "note": "Where two headings read alike, the source gives them in different places.",
  "data": [
    {"substance": "ACE2", "values": [
      {"measurement": "Kd", "setting": "SARS-CoV-2 S protein; read-out: Kd for ACE2, lower end of literature range", "value": 0.0012, "unit": "µM"},
      {"measurement": "Kd", "setting": "SARS-CoV-2 S protein; read-out: Kd for ACE2, upper end of literature range", "value": 0.095, "unit": "µM"}
    ]},
    {"substance": "low-molecular-weight heparin", "values": [
      {"measurement": "content of the pro-inflammatory cytokine IL-6", "setting": "[1]", "value": "pronounced decrease"}
    ]}
  ]
}
